biological target: T1, Glucane Synthesis of Candida albicans (Candida albicans, UniProt O13428); assay: Inhibition of the Glucane Synthesis of Candida albicans; assay type: biochemical; details: purified Candida albicans membranes, 14C-UDP glucose, 25° C. for 1 hour, radioactivity on filter counted
T1 construct: 22.5 µg of membrane proteins are incubated in a mixture of 2 Mm of 14C-UDP glucose; endogenous in cells
Procedure: A—Inhibition of the Glucane Synthesis of Candida albicans.
The membranes of Candida albicans are purified according to the process described by Tang and al Antimicrob. Agents Chemother 35, 99-103, 1991. 22.5 µg of membrane proteins are incubated in a mixture of 2 Mm of 14C-UDP glucose (specific activity=0.34mCi./mmol, 50 μg of α-amylase, 1Mm of dithiotreitol (DTT), 1Mm EDTA, 100 Mm NaF, 7 μM of GTP-γ-S, 1M of sucrose and 5 oMm OF Ttris-HCL (pH 7.8) in a volume of 100 μl. The medium is incubated at 25° C. for 1 hour and the reaction terminated by addition of TCA to a final concentration of 5%. The reaction medium is transferred onto a pre-humidified glass fibre filter. The filter is washed, dried and its radioactivity is counted.
Mulundocandin is used as positive control.
The control of the medium is carried out with the same quantity of DMSO 1%.

T1 sequence (O13428 1-1897): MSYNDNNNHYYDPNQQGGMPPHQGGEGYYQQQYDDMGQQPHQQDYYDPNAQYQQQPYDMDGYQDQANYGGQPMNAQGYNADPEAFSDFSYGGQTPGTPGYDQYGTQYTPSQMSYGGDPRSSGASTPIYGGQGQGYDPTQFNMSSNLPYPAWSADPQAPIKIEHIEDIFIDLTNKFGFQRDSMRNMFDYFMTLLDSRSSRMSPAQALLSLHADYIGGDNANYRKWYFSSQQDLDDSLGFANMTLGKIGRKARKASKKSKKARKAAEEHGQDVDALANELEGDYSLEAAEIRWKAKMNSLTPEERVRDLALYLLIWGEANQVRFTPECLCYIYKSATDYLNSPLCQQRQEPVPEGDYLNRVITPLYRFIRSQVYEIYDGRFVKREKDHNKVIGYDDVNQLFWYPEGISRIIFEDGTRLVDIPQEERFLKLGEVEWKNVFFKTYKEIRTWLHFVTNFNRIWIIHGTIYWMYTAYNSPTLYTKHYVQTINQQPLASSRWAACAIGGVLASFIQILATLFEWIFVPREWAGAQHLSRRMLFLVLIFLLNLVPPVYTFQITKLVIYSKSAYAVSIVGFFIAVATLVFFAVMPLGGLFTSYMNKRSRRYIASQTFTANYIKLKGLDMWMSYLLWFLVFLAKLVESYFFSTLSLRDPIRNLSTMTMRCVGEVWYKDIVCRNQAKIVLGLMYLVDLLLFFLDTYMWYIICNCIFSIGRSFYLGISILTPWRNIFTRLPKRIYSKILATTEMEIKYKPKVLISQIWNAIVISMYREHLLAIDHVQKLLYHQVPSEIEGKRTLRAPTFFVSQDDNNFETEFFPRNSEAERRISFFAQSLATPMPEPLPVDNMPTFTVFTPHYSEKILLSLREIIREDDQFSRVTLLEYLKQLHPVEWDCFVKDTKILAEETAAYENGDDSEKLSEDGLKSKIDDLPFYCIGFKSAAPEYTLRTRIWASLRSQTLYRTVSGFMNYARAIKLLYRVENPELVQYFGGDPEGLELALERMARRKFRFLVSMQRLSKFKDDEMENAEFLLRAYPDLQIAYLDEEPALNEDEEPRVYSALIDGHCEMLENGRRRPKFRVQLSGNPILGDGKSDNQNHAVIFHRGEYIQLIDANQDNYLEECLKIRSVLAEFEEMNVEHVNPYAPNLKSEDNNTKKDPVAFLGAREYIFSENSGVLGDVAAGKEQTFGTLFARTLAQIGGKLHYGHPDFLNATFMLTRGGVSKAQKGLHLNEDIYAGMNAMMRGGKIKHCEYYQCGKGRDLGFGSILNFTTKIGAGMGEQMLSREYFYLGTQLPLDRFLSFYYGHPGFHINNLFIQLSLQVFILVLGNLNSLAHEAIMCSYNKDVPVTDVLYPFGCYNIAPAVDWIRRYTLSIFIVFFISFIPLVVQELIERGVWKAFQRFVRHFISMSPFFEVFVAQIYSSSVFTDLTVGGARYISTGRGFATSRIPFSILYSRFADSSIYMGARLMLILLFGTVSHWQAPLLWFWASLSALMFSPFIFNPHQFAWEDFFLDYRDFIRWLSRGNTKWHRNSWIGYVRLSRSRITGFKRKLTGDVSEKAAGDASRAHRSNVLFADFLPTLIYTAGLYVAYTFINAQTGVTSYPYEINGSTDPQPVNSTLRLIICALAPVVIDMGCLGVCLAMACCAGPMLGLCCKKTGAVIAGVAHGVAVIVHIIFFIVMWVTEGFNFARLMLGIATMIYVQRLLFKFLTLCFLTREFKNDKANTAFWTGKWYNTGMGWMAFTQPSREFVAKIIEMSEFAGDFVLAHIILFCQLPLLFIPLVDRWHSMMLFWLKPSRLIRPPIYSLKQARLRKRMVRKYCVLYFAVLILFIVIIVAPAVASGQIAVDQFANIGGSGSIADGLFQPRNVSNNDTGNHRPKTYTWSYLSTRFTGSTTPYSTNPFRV
T1 sequence (O42825 whole entry partner): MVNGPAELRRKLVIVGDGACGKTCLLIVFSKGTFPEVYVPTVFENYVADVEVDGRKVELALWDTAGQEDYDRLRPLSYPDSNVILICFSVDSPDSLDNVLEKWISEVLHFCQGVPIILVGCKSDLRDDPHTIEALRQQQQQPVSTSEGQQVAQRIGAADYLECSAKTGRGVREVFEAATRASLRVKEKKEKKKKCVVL

Question: For “(±) Trifluoroacetate of 1-[4-[(Aminoiminomethyl) hydrazono]-N2-(12-methyl-1-oxotetradecyl)-L-ornithine]4-[4-(4-hydroxyphenyl)-L-threonine]-5-L Serine Echinocandin B [Example 11]”, which “Inhibition of the Glucane Synthesis of Candida albicans (activity in this test)” value (“Inhibition” for short) is on record?
Answer: good activity

Question: With CCCCCCCCOc1ccc(-c2ccc(C(=O)NC3CC(NCCN)CNC(=O)C4C(O)C(C)CN4C(=O)C(CO)NC(=O)C(C(O)Cc4ccc(O)cc4)NC(=O)C4CC(O)CN4C(=O)C(C(C)O)NC3=O)cc2)cc1.O=C(O)C(F)(F)F (single isomer, unassigned; isomer a) [Example 14, Trifluoroacetate of 1-[4-[(2-Aminoethyl)amino]N2-[[4′-(octyloxy)[1.1′-biphenyl]4-yl]carbonyl]-L-ornithine]4-[4-(4-hydroxyphenyl)-L-threonine]-5-L Serine Echinocandin B (Isomer A)] as the compound, how does the “Inhibition” value read?
Answer: good activity

Question: “Trifluoroacetate of 1-[4-[(2-Aminoethyl)amino]-N2-(12-methyl-1-oxotetradecyl)-L-ornithine]4-[4-(4-hydroxyphenyl)-L-threonine]-5-L Serine Echinocandin B (Isomer A and Isomer B) [Example 9]” was tested. Which “Inhibition” value did it give?
Answer: good activity

— patent publication US6677429B1, “Echinocandin derivatives, preparation method and application as anti-fungal agents” (Aventis Pharma S.A., priority 1997, dated 2004)
